Data on three molecules can be found in ChEMBL document CHEMBL1255557, “Heterobiaryl and heterobiaryl ether derived M5 positive allosteric modulators” (Bioorg Med Chem Lett, 2010).

Active and inactive are the calls of the source. No cut-off for these calls is given here.

The target in data set [1] is T1, Muscarinic acetylcholine receptor M5 (Homo sapiens, UniProt P08912).
T1 sequence (P08912 whole entry): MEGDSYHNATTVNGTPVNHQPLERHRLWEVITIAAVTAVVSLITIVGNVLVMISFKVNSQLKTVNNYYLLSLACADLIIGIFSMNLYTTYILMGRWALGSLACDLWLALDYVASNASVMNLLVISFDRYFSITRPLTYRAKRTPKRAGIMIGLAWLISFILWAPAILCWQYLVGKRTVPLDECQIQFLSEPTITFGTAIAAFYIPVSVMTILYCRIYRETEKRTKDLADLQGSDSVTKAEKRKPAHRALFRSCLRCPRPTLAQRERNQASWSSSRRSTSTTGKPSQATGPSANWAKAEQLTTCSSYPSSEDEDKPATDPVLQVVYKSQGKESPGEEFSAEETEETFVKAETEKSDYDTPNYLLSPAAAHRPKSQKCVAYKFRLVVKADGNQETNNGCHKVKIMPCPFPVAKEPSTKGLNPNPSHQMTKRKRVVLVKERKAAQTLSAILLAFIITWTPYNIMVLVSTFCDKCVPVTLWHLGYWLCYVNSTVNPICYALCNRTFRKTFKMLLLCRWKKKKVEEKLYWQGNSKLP
Description: Positive allosteric modulation of muscarinic M5 receptor expressed in CHO cells assessed as effect on acetylcholine-induced intracellular calcium mobilization after 1 hr by FLIPR assay. Type of data set: functional, cell-based. A general note: Calcium assays in cells follow changes in intracellular calcium, usually with a dye or a luminescent sensor.

Data set [2] has as its target T2, Muscarinic acetylcholine receptor M2 (Homo sapiens, UniProt P08172).
T2 sequence (P08172 whole entry): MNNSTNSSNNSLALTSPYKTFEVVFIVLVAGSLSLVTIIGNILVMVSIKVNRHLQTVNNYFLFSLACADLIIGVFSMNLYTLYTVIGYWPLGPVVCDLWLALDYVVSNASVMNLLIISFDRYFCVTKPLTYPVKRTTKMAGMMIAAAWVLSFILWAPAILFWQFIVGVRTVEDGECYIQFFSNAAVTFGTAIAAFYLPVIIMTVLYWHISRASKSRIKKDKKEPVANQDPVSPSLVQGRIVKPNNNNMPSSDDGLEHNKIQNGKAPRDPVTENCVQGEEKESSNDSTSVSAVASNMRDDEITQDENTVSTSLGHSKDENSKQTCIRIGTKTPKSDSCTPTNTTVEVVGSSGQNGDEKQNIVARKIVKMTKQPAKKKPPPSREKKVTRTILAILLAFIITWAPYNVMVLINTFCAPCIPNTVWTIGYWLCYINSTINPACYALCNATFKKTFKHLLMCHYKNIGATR
Description: Positive allosteric modulation of muscarinic M2 receptor expressed in CHO cells co-expressing Gqi5 assessed as effect on acetylcholine-induced intracellular calcium mobilization after 1 hr by FLIPR assay.

The target of data set [3] is T3, Muscarinic acetylcholine receptor M4 (Homo sapiens, UniProt P08173).
T3 sequence (P08173 whole entry): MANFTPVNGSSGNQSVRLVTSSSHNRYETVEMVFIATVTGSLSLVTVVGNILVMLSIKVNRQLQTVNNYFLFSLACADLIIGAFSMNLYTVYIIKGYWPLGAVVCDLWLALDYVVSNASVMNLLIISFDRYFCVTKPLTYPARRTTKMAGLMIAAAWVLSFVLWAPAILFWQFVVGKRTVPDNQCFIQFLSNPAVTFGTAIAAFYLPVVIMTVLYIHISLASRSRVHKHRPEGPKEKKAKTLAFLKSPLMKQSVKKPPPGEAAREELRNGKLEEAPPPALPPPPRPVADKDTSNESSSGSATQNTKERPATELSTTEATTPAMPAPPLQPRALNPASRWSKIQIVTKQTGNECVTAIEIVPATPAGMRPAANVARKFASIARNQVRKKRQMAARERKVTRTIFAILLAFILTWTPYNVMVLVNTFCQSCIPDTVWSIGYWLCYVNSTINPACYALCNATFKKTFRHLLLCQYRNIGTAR
In words: Positive allosteric modulation of muscarinic M4 receptor expressed in CHO cells co-expressing Gqi5 assessed as effect on acetylcholine-induced intracellular calcium mobilization after 1 hr by FLIPR assay. Format: functional, cell-based.

In data set [4] the target is Muscarinic acetylcholine receptor M3 (Homo sapiens) (UniProt P20309). In words: Positive allosteric modulation of muscarinic M3 receptor expressed in CHO cells assessed as potentiation of acetylcholine-induced intracellular calcium mobilization at 30 uM after 1 hr by FLIPR assay relative to acetylcholine. Format: functional, cell-based.
Muscarinic acetylcholine receptor M3 (Homo sapiens), sequence (P20309 whole entry, looked up): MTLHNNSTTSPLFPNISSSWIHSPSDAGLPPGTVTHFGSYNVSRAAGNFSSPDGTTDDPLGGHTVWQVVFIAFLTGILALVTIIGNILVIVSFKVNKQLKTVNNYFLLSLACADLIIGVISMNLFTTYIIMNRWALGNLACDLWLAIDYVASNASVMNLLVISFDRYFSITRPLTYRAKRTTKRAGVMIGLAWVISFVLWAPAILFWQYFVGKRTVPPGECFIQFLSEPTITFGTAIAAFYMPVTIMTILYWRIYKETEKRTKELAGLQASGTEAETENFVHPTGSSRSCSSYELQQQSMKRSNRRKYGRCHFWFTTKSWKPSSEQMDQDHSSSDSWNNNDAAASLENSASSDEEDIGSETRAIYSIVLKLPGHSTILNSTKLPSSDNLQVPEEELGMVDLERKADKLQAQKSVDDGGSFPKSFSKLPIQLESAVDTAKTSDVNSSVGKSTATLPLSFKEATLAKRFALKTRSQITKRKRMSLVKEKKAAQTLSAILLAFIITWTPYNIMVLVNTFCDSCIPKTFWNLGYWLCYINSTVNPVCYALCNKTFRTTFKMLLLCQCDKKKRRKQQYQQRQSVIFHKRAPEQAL
In data set [5] the target is T4, Muscarinic acetylcholine receptor M2 (Homo sapiens) (UniProt P08172).
T4 sequence (whole entry): T2 sequence (P08172 whole entry)
In words: Positive allosteric modulation of muscarinic M2 receptor expressed in CHO cells co-expressing Gqi5 assessed as potentiation of acetylcholine-induced intracellular calcium mobilization at 30 uM after 1 hr by FLIPR assay relative to acetylcholine. Format: functional, cell-based.

Data set [6] concerns the target T5, Muscarinic acetylcholine receptor M1 (Homo sapiens) (UniProt P11229).
T5 sequence (whole entry): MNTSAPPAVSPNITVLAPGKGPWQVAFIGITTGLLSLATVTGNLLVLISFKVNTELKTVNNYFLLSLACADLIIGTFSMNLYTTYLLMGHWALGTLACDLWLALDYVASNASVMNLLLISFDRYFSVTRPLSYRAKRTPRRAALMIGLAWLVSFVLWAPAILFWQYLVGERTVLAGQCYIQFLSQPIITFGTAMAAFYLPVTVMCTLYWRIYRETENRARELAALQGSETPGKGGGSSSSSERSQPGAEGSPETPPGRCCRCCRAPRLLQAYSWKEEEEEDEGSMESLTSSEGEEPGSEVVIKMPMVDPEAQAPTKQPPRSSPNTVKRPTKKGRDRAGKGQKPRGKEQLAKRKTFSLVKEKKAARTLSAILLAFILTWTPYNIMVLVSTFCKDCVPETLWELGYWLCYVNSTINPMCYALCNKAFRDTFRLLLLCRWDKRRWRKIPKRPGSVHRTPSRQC
Description: Positive allosteric modulation of muscarinic M1 receptor expressed in CHO cells assessed as potentiation of acetylcholine-induced intracellular calcium mobilization at 30 uM after 1 hr by FLIPR assay relative to acetylcholine. Format: functional, cell-based.

A short description of data set [7]: Partition coefficient, log P of the compound. Format: physicochemical. The note with it: octanol/water.
Data set [8] addresses T6, Muscarinic acetylcholine receptor M5 (Homo sapiens) (UniProt P08912).
T6 sequence (whole entry): T1 sequence (P08912 whole entry)
Description: Positive allosteric modulation of muscarinic M5 receptor expressed in CHO cells assessed as potentiation of acetylcholine-induced intracellular calcium mobilization at 30 uM after 1 hr by FLIPR assay relative to acetylcholine. Format: functional, cell-based.

Data set [9] addresses T6, Muscarinic acetylcholine receptor M5 (Homo sapiens). In words: Positive allosteric modulation of muscarinic M5 receptor expressed in CHO cells assessed as effect on acetylcholine-induced intracellular calcium mobilization after 1 hr by FLIPR assay relative to acetylcholine. Type of data set: functional, cell-based.
Data set [10] concerns the target T7, Muscarinic acetylcholine receptor M4 (Homo sapiens) (UniProt P08173).
T7 sequence (whole entry): T3 sequence (P08173 whole entry)
In words: Positive allosteric modulation of muscarinic M4 receptor expressed in CHO cells co-expressing Gqi5 assessed as potentiation of acetylcholine-induced intracellular calcium mobilization at 30 uM after 1 hr by FLIPR assay relative to acetylcholine. Type of data set: functional, cell-based.

Data set [11] addresses Sodium-dependent noradrenaline transporter (Homo sapiens) (UniProt P23975). In words: Inhibition of NET.
Data set [12] has as its target Histamine H1 receptor (Homo sapiens) (UniProt P35367). In words: Inhibition of histamine H1 receptor.

In general, EC50 refers to the concentration at which the effect is half-maximal. In general, logP refers to the decadic logarithm of the partition coefficient of the neutral form, usually between octanol and water. High values mean higher lipophilicity, low ones lower lipophilicity. By Emax is commonly meant the size of the effect at its maximum, as opposed to the concentration needed.

Histamine H1 receptor (Homo sapiens), sequence (P35367 whole entry): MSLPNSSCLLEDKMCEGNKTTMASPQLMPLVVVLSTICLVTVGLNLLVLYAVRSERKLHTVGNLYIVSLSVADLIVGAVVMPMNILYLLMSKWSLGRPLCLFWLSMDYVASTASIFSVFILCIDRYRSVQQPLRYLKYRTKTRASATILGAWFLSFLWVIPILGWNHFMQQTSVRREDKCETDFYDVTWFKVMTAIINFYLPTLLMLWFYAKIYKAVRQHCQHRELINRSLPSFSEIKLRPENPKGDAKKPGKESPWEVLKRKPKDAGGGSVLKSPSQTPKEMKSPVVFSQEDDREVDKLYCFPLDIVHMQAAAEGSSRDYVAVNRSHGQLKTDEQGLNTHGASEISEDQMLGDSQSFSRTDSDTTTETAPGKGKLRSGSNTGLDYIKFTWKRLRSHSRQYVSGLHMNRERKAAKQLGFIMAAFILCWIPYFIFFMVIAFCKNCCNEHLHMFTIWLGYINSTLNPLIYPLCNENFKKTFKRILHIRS
Sodium-dependent noradrenaline transporter (Homo sapiens), sequence (P23975 whole entry): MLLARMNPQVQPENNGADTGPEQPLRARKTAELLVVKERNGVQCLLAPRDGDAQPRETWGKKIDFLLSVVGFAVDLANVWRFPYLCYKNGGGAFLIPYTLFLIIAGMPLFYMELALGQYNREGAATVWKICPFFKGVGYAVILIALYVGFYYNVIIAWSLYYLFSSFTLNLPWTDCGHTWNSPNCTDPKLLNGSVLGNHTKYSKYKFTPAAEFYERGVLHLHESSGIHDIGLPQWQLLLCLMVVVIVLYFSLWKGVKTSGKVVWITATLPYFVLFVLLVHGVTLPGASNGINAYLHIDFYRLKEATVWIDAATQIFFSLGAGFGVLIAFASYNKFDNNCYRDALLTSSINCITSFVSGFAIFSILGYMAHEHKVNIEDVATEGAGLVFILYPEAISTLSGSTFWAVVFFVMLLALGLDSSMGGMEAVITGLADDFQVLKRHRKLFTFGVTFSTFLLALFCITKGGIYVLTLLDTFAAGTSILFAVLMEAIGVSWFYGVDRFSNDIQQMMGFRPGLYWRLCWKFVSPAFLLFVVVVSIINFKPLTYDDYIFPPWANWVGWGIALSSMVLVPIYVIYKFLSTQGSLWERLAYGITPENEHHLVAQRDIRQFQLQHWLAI

Take `O=C1C(=O)N(Cc2ccc(Br)cc2)c2ccccc21`: the EC50 was 4.6 µM in data set [1], greater than 30 µM in [2] and greater than 30 µM in [3].

With `O=C1C(=O)N(Cc2ccc(-c3ccccc3)nc2)c2ccc(OC(F)(F)F)cc21`, the EC50 in [1] was found to be 3.8 µM. The result in data set [4], in data set [5], in data set [6] and in data set [10] was inactive. This molecule had a logP in data set [7] of 3.6. For the same molecule, the fold change (FC) in data set [8] stood at 14. The Emax in data set [9] was determined as 76%.

For the molecule `O=C1C(=O)N(Cc2ccc(Oc3cccc(F)n3)cc2)c2ccc(OC(F)(F)F)cc21`, the EC50 in data set [1] came out at 1.5 µM. For the same molecule, the inhibition result in data set [11] and in [12] was “Active” each time. Besides, the outcome in [4], in data set [5], in [6] and in data set [10] was inactive. Further, the fold change (FC) in data set [8] came out at 6. Also, the maximum response (Emax) in data set [9] turned out to be 62%.
